From PubChem BioAssay (NCI)
Where “and” joins values, the source holds several entries; their conditions need not be identical. Identical values can stand only once.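 Values below derive from 48-hour exposures of cells grown in 96-well plates, with endpoints linearly interpolated between the two concentrations bracketing the appropriate inhibition level. The concentration for 50% growth inhibition is given as GI50. The concentration for full growth arrest is given as TGI.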

Assays:
Assay in all cases: DTP human tumour cell line panel, 48 h
COLO 205 colon = system: COLO 205 colon
SK-MEL-28 melanoma = system: SK-MEL-28 melanoma
SK-MEL-2 melanoma = system: SK-MEL-2 melanoma
NCI-H522 lung = system: NCI-H522 lung
U251 CNS = system: U251 CNS
OVCAR-5 ovarian = system: OVCAR-5 ovarian
IGROV1 ovarian = system: IGROV1 ovarian
PC-3 prostate = system: PC-3 prostate
NCI/ADR-RES ovarian = system: NCI/ADR-RES ovarian

Row | Compound | TGI (COLO 205 colon) | TGI (SK-MEL-28 melanoma) | TGI (SK-MEL-2 melanoma) | TGI (NCI-H522 lung) | TGI (U251 CNS) [µM] | TGI (OVCAR-5 ovarian) [µM] | TGI (IGROV1 ovarian) [µM] | GI50 (COLO 205 colon) [µM] | GI50 (SK-MEL-28 melanoma) [µM] | GI50 (SK-MEL-2 melanoma) [µM] | GI50 (PC-3 prostate) [µM] | TGI (PC-3 prostate) [µM] | GI50 (NCI-H522 lung) [µM] | GI50 (NCI/ADR-RES ovarian) | TGI (NCI/ADR-RES ovarian) | GI50 (U251 CNS) [µM] | GI50 (IGROV1 ovarian) | GI50 (OVCAR-5 ovarian)
1 | Cc1ccc(S(=O)(=O)N[C@H](C(=O)O)c2ccccc2)cc1 | > 100 µM | > 100 µM | > 100 µM | > 100 µM | > 100 | > 100 | > 100 |  |  |  |  |  |  |  |  |  |  | 
2 | Cc1ccc2c(c1)C(C)Cc1c(ncnc1-n1cnc3ccccc31)N2C (stereo unspecified) | 0.818 µM | 29 µM | 21.9 µM | 10.8 µM | 15.9 |  | 28.4 | 0.285 | 12.3 | 0.547 | 0.284 | 36.4 | 0.204 | 0.275 µM | 14.8 µM | 0.415 | 1.17 µM | 
3 | CN(C)c1ccc2c(=O)c3ccccc3oc2n1 | > 100 µM | > 100 µM | > 100 µM | > 100 µM |  | > 100 | > 100 |  |  |  |  |  |  |  |  |  |  | 
4 | O=C(Nc1ccccc1-c1n[nH]c(=S)[nH]c1=O)C(F)(F)F | > 100 µM | > 100 µM | > 100 µM | > 100 µM | > 100 | > 100 | > 100 |  |  |  |  |  |  |  |  |  |  | 
5 | CCOc1ccccc1NC(=O)CC1C(=O)Nc2ccccc2S1=O (stereo unspecified) |  | > 100 µM | > 100 µM | > 100 µM | > 100 | > 100 | > 100 |  |  |  |  |  |  |  |  |  |  | 
6 | Clc1ncnc(Cl)c1Cl | > 100 µM | > 100 µM |  | > 100 µM | > 100 | > 100 | > 100 |  |  |  |  | > 100 |  |  | > 100 µM |  |  | 
7 | CS/C(=N\C(=S)N(C)C)N(c1ccccc1)c1nc(=[N+](C)C)ss1 | 7.04 µM | 9.22 µM | 36.6 µM | 5.36 µM | 20 |  | > 100 |  |  |  |  |  |  |  |  |  |  | 
8 | O=C(/C=C/c1ccc(OCCCOc2ccc(/C=C/C(=O)c3ccccc3)cc2)cc1)c1ccccc1 | > 100 µM | > 100 µM | > 100 µM |  |  |  | > 100 |  |  |  |  |  |  |  |  |  |  | 
9 | CC(C)[C@]12O[C@H]1[C@@H]1O[C@]13[C@]1(O[C@H]1C[C@H]1C4=C(CC[C@@]13C)C(=O)OC4)[C@@H]2O | 0.0219 µM and 0.0366 µM | 0.0226 µM and 0.032 µM | 0.0195 µM and 0.0323 µM | 0.157 µM and 0.0366 µM | > 100 | > 100 | > 100 | 0.0117 | 0.0119 | 0.0157 |  |  | 0.0114 |  | 0.0922 µM | 0.0379 | 0.0257 µM | 0.0325 µM and 0.0282 µM
10 | COc1ccc(C(=O)c2cc(OC)c(OC)c(OC)c2)cc1 | 3.69 µM | > 95.8 µM | > 100 µM | 0.238 µM | 9.74 | > 100 | > 100 |  |  |  |  |  |  |  | > 100 µM |  |  | 
11 | N#Cc1ccccc1NC(=O)/C(=N\N)C(C(=O)c1ccncc1)C1OC(=O)c2ccccc21 (stereo unspecified) | > 100 µM | > 100 µM | > 100 µM | > 100 µM | > 100 | > 100 | > 100 |  |  |  |  |  |  |  |  |  |  | 
12 | COc1ccccc1/C=C(\C#N)c1ccccc1 | 32.4 µM | > 100 µM | 94.8 µM | 44.7 µM | > 100 | > 100 | > 100 |  |  |  |  |  |  |  |  |  |  | 
13 | Cc1ccc(NC(=O)c2cc3cc(N=Nc4ccc(Br)cc4)ccc3oc2=O)cc1 | > 100 µM | > 100 µM | > 100 µM | > 100 µM | > 100 | > 100 |  |  |  |  |  |  |  |  |  |  |  | 
14 | Cc1ccc(S(=O)(=O)c2c(N)c3nc4ccccc4n3c3nc4ccccc4nc23)cc1 | > 100 µM | > 100 µM | > 100 µM | > 100 µM | > 100 | > 100 | > 100 |  |  |  |  |  |  |  |  |  |  | 
15 | C=C1C(=O)O[C@H]2[C@H]1CC/C(CNC(=O)Cc1c[nH]c3ccccc13)=C\CC[C@@]1(C)O[C@@H]21 | 1.14 µM |  | 22.2 µM | 1.38 µM | 16.5 | 24.2 | 9.06 | 0.313 |  | 6.46 | 6.36 | 21.1 | 0.365 | 19 µM | 65.6 µM | 2.52 | 0.833 µM | 10.2 µM
16 | O=C1[C@@H]2C(c3ccccc3Br)=NO[C@@H]2C(=O)N1c1ccc(Cc2ccc(N3C(=O)[C@H]4C(c5ccccc5Br)=NO[C@H]4C3=O)cc2)cc1 | > 100 µM | > 100 µM | > 100 µM |  | > 100 | > 100 | > 100 |  |  |  |  |  |  |  |  |  |  | 
17 | COc1cc(C2c3[nH]c4ccccc4c3C[C@H]3COC(=O)N23)cc(OC)c1OC (stereo partly specified) | 0.287 µM and 0.0434 µM |  | > 100 µM | 0.04 µM and < 0.01 µM | > 100 |  | > 100 | < 0.01 |  | < 0.01 | < 0.01 |  | < 0.01 | 0.0586 µM and < 0.01 µM | 0.265 µM and 0.0902 µM | < 0.01 | 0.0655 µM and < 0.01 µM | 
18 | COc1c(C=O)c2c(c(OC)c1OC)-c1ccc(OC)c(=O)cc1[C@@H](NC(C)=O)CC2 | 0.574 µM | > 100 µM | 2.57 µM |  | > 25.5 | > 100 | 76.6 |  |  |  |  | > 100 |  |  |  |  |  | 
19 | O=C(Nc1ccc(Cl)cc1Cl)C1C(=O)N(c2ccc(Cl)cc2Cl)C(=O)/C1=N\Nc1ccc([N+](=O)[O-])cc1[N+](=O)[O-] (stereo unspecified) | > 100 µM | > 100 µM | > 100 µM | 71 µM | > 100 | > 100 | > 100 |  |  |  |  |  |  |  |  |  |  | 
20 | CCSCC1CC(O)(c2ccccc2)C(c2ccccc2)C(c2ccc(Cl)cc2)O1 (stereo unspecified) | 2.94 µM | 4.19 µM | 3.5 µM |  | 3.32 | 3.54 | 4.88 | 1.53 | 1.79 | 1.73 | 1.48 | 4.86 |  | 1.97 µM | 5.34 µM | 1.63 | 2.01 µM | 1.82 µM
21 | COC(=O)C1=C(c2ccc(OC)c(OC)c2)OC(c2ccc(OC)c(OC)c2)C1 (stereo unspecified) | 36.4 µM | > 100 µM | > 100 µM |  | > 100 | > 100 | > 100 |  |  |  |  |  |  |  |  |  |  | 
22 | C/C(CN1C(=O)c2ccccc2C1=O)=N\NS(=O)(=O)c1ccc(C)cc1 | > 100 µM |  | > 100 µM | > 100 µM | > 100 | > 100 | > 100 |  |  |  |  |  |  |  |  |  |  | 
23 | O=C1c2ccccc2-c2c1c1ccccc1c(=O)n2CCCCNCCCn1c2c(c3ccccc3c1=O)C(=O)c1ccccc1-2 | 12.7 µM | 34.8 µM | 15.2 µM | 6.39 µM |  | 1.54 |  | 1.51 | 2.95 | 3.51 | 0.245 | 1.05 | 0.361 | 0.582 µM | 1.72 µM |  |  | 0.676 µM
